Source: patent US20110046130A1, “TETRAHYDRONAPHTHYRIDINES AND AZA DERIVATIVES THEREOF AS HISTAMINE H3 RECEPTOR ANTAGONISTS” (Evotec AG, priority 2008, published 2011)

The compounds below were run against T1, human H3 receptors (Homo sapiens, UniProt Q9Y5N1) (assay: cAMP quantification protocol for human H3 receptor testing). Settings: inhibition of agonist-induced (100 nM histamine, 10 μM forskolin) decrease of intracellular cAMP; CHO-K1 cell line expressing human H3 receptors; read-out: Potency range (IC50 values).
T1 construct: host or cells: CHO-K1
T1 sequence (Q9Y5N1 whole entry): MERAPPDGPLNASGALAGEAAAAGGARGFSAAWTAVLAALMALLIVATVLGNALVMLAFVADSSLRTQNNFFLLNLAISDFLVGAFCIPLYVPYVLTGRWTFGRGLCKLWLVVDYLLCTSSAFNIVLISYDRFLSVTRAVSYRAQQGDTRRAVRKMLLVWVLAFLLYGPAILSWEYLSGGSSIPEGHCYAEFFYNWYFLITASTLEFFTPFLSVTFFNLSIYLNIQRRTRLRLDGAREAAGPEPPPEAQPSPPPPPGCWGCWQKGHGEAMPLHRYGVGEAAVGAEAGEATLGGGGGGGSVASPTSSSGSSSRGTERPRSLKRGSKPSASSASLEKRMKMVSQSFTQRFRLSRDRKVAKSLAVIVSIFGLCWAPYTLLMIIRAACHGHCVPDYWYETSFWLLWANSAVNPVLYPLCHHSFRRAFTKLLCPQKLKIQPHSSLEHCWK
Assay type: cell-based
Method: CHO-K1 cell line expressing human H3 receptors were purchased from Euroscreen (Gosselies, Belgium, Cat. no.: ES-392-C)
Human H3 receptor-expressing cell-lines were grown in Ham's F12 [Sigma, Cat. no. N6658], supplemented with 10% FBS [Sigma, Cat. no. F9665], 400 μg/ml G418 [Sigma, Cat. no. N1876] and 250 μg/ml Zeocin [Invitrogen, Cat. no. 46-0509]) according to the protocol provided by Euroscreen.
cAMP Quantification Protocol for Human H3 Receptor Testing
The assay measures the ability of test compounds to inhibit Histamine receptor agonist-induced decrease of intracellular free cAMP (receptor is Gi coupled).
Specifically, a cAMP quantification assay system from DiscoveRx (cAMP XS+; Cat. no. 90-0075) was used.
For the cAMP assay, confluent cells were detached from the culture vessels with 1× trypsin-EDTA solution (Sigma), and seeded into 384-well Costar plates (white, clear bottom, Cat. no. 3707) at a density of 10,000 cells per well. Cells were seeded in a volume of 50 μl in medium without antibiotics and incubated overnight in a humidified atmosphere with 5% CO2 at 37° C. The cAMP assay was performed according to the protocol provided by DiscoveRx.
The cell culture medium was removed and the cells washed once with PBS (50 μl per well). The plates were emptied by inversion and 7.5 μl/well of compound in PBS (containing 1 mM IBMX and 0.03% BSA) were added and incubated for 30 min at 37° C.
Subsequent 7.5 μl/well specific agonist solution was added and the plates for another 30 min incubated at 37° C.
The following agonist solution is used:
100 nM histamine, 10 μM forskolin in PBS (containing 1 mM IBMX and 0.03% BSA)
After the incubation with the agonist, 5 μl/well cAMP XS antibody solution was added followed by 20 μl/well Gal/EII/Lysis(1:5:19)+ED (1:1). The plates were incubated for one hour at room temperature and afterwards 20 μl/well EA reagent was added. The luminescence was developed for approximately three hours at room temperature and the plates were read out using a ‘BMG Novostar’ plate reader.
Test compounds were assayed at 8 concentrations in triplicate. Serial 10-fold dilutions in 100% DMSO were made at a 100-times higher concentration than the final concentration and then diluted with a 2 step protocol in assay buffer to reach the required assay concentrations and 1% DMSO.
Compound `O=C1CCCC2c3ccc(O[C@@H]4CCN(C5CCC5)C4)nc3CCN12` (mixture of isomers) [Example 16, 3-{[(3R)-1-cyclobutylpyrrolidin-3-yl]oxy}-5,6,9,10,11,11a-hexahydro-8H-pyrido[2,1-f][1,6]naphthyridin-8-one] has an IC50 of 100 to 500 nM. With `O=C1CCCC2c3ccc(O[C@H]4CCN(C5CCC5)C4)nc3CCN12` (mixture of isomers) [Example 17, 3-{[(3S)-1-cyclobutylpyrrolidin-3-yl]oxy}-5,6,9,10,11,11a-hexahydro-8H-pyrido[2,1-f][1,6]naphthyridin-8-one] the IC50 was 500 to 5000 nM. For `CN1CCc2nc(OC3CCN(C4CCC4)CC3)ccc2C1` [Example 1, 2-[(1-Cyclobutylpiperidin-4-yl)oxy]-6-methyl-5,6,7,8-tetrahydro-1,6-naphthyridine], the IC50 was < 100 nM. `CN1CCc2nc(OC3CCN(C4CCCC4)CC3)ccc2C1` [Example 2, 2-[(1-Cyclopentylpiperidin-4-yl)oxy]-6-methyl-5,6,7,8-tetrahydro-1,6-naphthyridine] was tested, and the IC50 was < 100 nM. `CN1CCc2nc(O[C@@H]3CCN(C4CCCC4)C3)ccc2C1` [Example 3, 2-{[(3R)-1-Cyclopentylpyrrolidin-3-yl]oxy}-6-methyl-5,6,7,8-tetrahydro-1,6-naphthyridine] was tested, and the IC50 was 100 to 500 nM. `CN1CCc2nc(O[C@H]3CCN(C4CCCC4)C3)ccc2C1` [Example 4, 2-{[(3S)-1-Cyclopentylpyrrolidin-3-yl]oxy}-6-methyl-5,6,7,8-tetrahydro-1,6-naphthyridine] gave an IC50 of 100 to 500 nM. In the case of `CN1CCc2nc(O[C@@H]3CCN(C4CCC4)C3)ccc2C1` [Example 5, 2-{[(3R)-1-Cyclobutylpyrrolidin-3-yl]oxy}-6-methyl-5,6,7,8-tetrahydro-1,6-naphthyridine], the IC50 is reported as 100 to 500 nM. `CN1CCc2nc(O[C@H]3CCN(C4CCC4)C3)ccc2C1` [Example 6, 2-{[(3S)-1-Cyclobutylpyrrolidin-3-yl]oxy}-6-methyl-5,6,7,8-tetrahydro-1,6-naphthyridine] was tested, and the IC50 was 500 to 5000 nM. `CN1CCc2nc(OCCCN3CCCC3)ccc2C1` [Example 7, 6-Methyl-2-(3-pyrrolidin-1-ylpropoxy)-5,6,7,8-tetrahydro-1,6-naphthyridine] was tested, and the IC50 was < 100 nM. For `CC(C)N1CCC(Oc2ccc3c(n2)CCN(C)C3)CC1` [Example 8, 6-Methyl-2-{[1-(1-methylethyl)piperidin-4-yl]oxy}-5,6,7,8-tetrahydro-1,6-naphthyridine], the IC50 was < 100 nM. In the case of `CN1CCC(Oc2ccc3c(n2)CCN(C)C3)CC1` [Example 9, 6-Methyl-2-[(1-methylpiperidin-4-yl)oxy]-5,6,7,8-tetrahydro-1,6-naphthyridine], the IC50 is reported as 500 to 5000 nM. In the case of `CC(C)N1CCC(Oc2nc3c(cc2C#N)CN(C)CC3)CC1` [Example 10, 6-Methyl-2-{[1-(1-methylethyl)piperidin-4-yl]oxy}-5,6,7,8-tetrahydro-1,6-naphthyridine-3-carbonitrile], the IC50 is reported as < 100 nM. With `CN1CCc2nc(OC3CCN(C4CC4)CC3)c(C#N)cc2C1` [Example 11, 2-[(1-Cyclopropylpiperidin-4-yl)oxy]-6-methyl-5,6,7,8-tetrahydro-1,6-naphthyridine-3-carbonitrile] the IC50 was < 100 nM. In the case of `CN1CCc2nc(OC3CCN(C4CCC4)CC3)c(C#N)cc2C1` [Example 12, 2-[(1-Cyclobutylpiperidin-4-yl)oxy]-6-methyl-5,6,7,8-tetrahydro-1,6-naphthyridine-3-carbonitrile], the IC50 is reported as < 100 nM. For `CN1CCc2nc(OC3CCN(C4CCC4)CC3)ncc2C1` [Example 13, 2-[(1-Cyclobutylpiperidin-4-yl)oxy]-6-methyl-5,6,7,8-tetrahydropyrido[4,3-d]pyrimidine], the IC50 was < 100 nM. `O=C1CCCC2c3ccc(OC4CCN(C5CCC5)CC4)nc3CCN12` (stereo not drawn) [Example 14, 3-[(1-Cyclobutylpiperidin-4-yl)oxy]-5,6,9,10,11,11a-hexahydro-8H-pyrido[2,1-f][1,6]naphthyridin-8-one] was tested, and the IC50 was < 100 nM. For `CC(C)N1CCC(Oc2ccc3c(n2)CCN2C(=O)CCCC32)CC1` (stereo not drawn) [Example 15, 3-{[1-(1-methylethyl)piperidin-4-yl]oxy}-5,6,9,10,11,11a-hexahydro-8H-pyrido[2,1-f][1,6]naphthyridin-8-one], the IC50 was < 100 nM. `O=C1CCCC2c3ccc(OCCCN4CCCC4)nc3CCN12` (stereo not drawn) [Example 18, 3-(3-pyrrolidin-1-ylpropoxy)-5,6,9,10,11,11a-hexahydro-8H-pyrido[2,1-f][1,6]naphthyridin-8-one] was tested, and the IC50 was < 100 nM. For `O=C1CCCC2c3ccc(OCCCN4CCCCC4)nc3CCN12` (stereo not drawn) [Example 19, 3-(3-piperidin-1-ylpropoxy)-5,6,9,10,11,11a-hexahydro-8H-pyrido[2,1-f][1,6]naphthyridin-8-one], the IC50 was < 100 nM. `O=C1CCCC2c3ccc(OCCCN4CCOCC4)nc3CCN12` (stereo not drawn) [Example 20, 3-(3-morpholin-4-ylpropoxy)-5,6,9,10,11,11a-hexahydro-8H-pyrido[2,1-f][1,6]naphthyridin-8-one] was tested, and the IC50 was 500 to 5000 nM. `O=C1CCCC2c3ccc(O[C@H]4CCN(C5CCCC5)C4)nc3CCN12` (stereo partly drawn) [Example 21, 3-{[(3S)-1-cyclopentylpyrrolidin-3-yl]oxy}-5,6,9,10,11,11a-hexahydro-8H-pyrido[2,1-f][1,6]naphthyridin-8-one] was tested, and the IC50 was 100 to 500 nM. With `O=C1CCCC2c3ccc(OC4CCN(C5CCCCC5)CC4)nc3CCN12` (stereo not drawn) [Example 22, 3-[(1-Cyclohexylpiperidin-4-yl)oxy]-5,6,9,10,11,11a-hexahydro-8H-pyrido[2,1-f][1,6]naphthyridin-8-one] the IC50 was < 100 nM. For `CN1CCC(Oc2ccc3c(n2)CCN2C(=O)CCCC32)CC1` (stereo not drawn) [Example 23, 3-[(1-Methylpiperidin-4-yl)oxy]-5,6,9,10,11,11a-hexahydro-8H-pyrido[2,1-f][1,6]naphthyridin-8-one], the IC50 was 500 to 5000 nM. `O=C1CCCC2c3ccc(OCCN4CCCCC4)nc3CCN12` (stereo not drawn) [Example 24, 3-(2-piperidin-1-ylethoxy)-5,6,9,10,11,11a-hexahydro-8H-pyrido[2,1-f][1,6]naphthyridin-8-one] was tested, and the IC50 was 500 to 5000 nM. For `O=C1CCCC2c3ccc(OCCCCN4CCCCC4)nc3CCN12` (stereo not drawn) [Example 25, 3-(4-piperidin-1-ylbutoxy)-5,6,9,10,11,11a-hexahydro-8H-pyrido[2,1-f][1,6]naphthyridin-8-one], the IC50 was 100 to 500 nM. In the case of `O=C1CCCC2c3ccc(OC4CCN(C5CCCC5)CC4)nc3CCN12` (stereo not drawn) [Example 26, 3-[(1-Cyclopentylpiperidin-4-yl)oxy]-5,6,9,10,11,11a-hexahydro-8H-pyrido[2,1-f][1,6]naphthyridin-8-one], the IC50 is reported as < 100 nM. With `O=C1CCC2c3ccc(OC4CCN(C5CCC5)CC4)nc3CCN12` (stereo not drawn) [Example 27, 3-[(1-Cyclobutylpiperidin-4-yl)oxy]-5,9,10,10a-tetrahydropyrrolo[2,1-f][1,6]naphthyridin-8(6H)-one] the IC50 was < 100 nM. `O=C1CCC2c3ccc(OC4CCN(C5CCCC5)CC4)nc3CCN12` (stereo not drawn) [Example 28, 3-[(1-Cyclopentylpiperidin-4-yl)oxy]-5,9,10,10a-tetrahydropyrrolo[2,1-f][1,6]naphthyridin-8(6H)-one] was tested, and the IC50 was < 100 nM. `N#Cc1cc2c(nc1OC1CCN(C3CCC3)CC1)CCN1C(=O)CCCC21` (stereo not drawn) [Example 29, 3-[(1-Cyclobutylpiperidin-4-yl)oxy]-8-oxo-5,8,9,10,11,11a-hexahydro-6H-pyrido[2,1-f][1,6]naphthyridine-2-carbonitrile] was tested, and the IC50 was < 100 nM. `CC(C)N1CCC(Oc2nc3c(cc2C#N)C2CCCC(=O)N2CC3)CC1` (stereo not drawn) [Example 30, 3-{[1-(1-methylethyl)piperidin-4-yl]oxy}-8-oxo-5,8,9,10,11,11a-hexahydro-6H-pyrido[2,1-f][1,6]naphthyridine-2-carbonitrile] was tested, and the IC50 was < 100 nM. For `CN(c1nc2c(cc1C#N)C1CCCC(=O)N1CC2)C1CCN(C2CCC2)CC1` (stereo not drawn) [Example 31, 3-[(1-cyclobutylpiperidin-4-yl)(methyl)amino]-8-oxo-5,8,9,10,11,11a-hexahydro-6H-pyrido[2,1-f][1,6]naphthyridine-2-carbonitrile], the IC50 was < 100 nM. In the case of `CC(C)N1CCC(N(C)c2ccc3c(n2)CCN2C(=O)CCCC32)CC1` (stereo not drawn) [Example 32, 3-{methyl[1-(1-methylethyl)piperidin-4-yl]amino}-5,6,9,10,11,11a-hexahydro-8H-pyrido[2,1-f][1,6]naphthyridin-8-one], the IC50 is reported as < 100 nM. In the case of `O=C1CCCC2c3ccc(OC4CCN(CC5CC5)CC4)nc3CCN12` (stereo not drawn) [Example 33, 3-{[1-(cyclopropylmethyl)piperidin-4-yl]oxy}-5,6,9,10,11,11a-hexahydro-8H-pyrido[2,1-f][1,6]naphthyridin-8-one], the IC50 is reported as < 100 nM.
